Reference: patent publication US20240361301A1, “METHODS AND COMPOSITIONS FOR MODULATING GOBLET CELLS AND FOR MUCO-OBSTRUCTIVE DISEASES” (Flagship Pioneering Innovations VI, LLC, priority 2021, published 2024)

Experiments:
[1] = test system: Human bronchial epithelial cells (HBECs) from COPD donors; experiment: IL-13 induced goblet hyperplasia in COPD donor HBEC air-liquid interface culture, qPCR; type: cell-based; conditions: 0.3 ng/ml IL-13, ALI day 14, vs DMSO
Source text: Air-liquid interface (ALI) differentiation of primary human bronchial epithelial cells (HBECs) is an accepted in vitro model of IL-13-induced goblet cell hyperplasia. HBECs were initially thawed into T75 flasks in PneumaCult maintenance media, allowed to expand, then seeded into apical chamber of transwells. After reaching confluency, medium was removed from the apical and basal chambers, and replaced only in the basal chamber with complete PneumaCult-ALI Medium to start air-liquid interface (ALI) differentiation. Cells were differentiated under ALI conditions for 14 days, in presence or absence of IL-13. Medium in the basal chamber containing IL-13 and test compounds was replenished 3 times a week, and excess mucus was washed from the apical chamber with PBS twice a week starting on day 7. At day 14, differentiation to goblet, ciliated, and club cells is assessed by histology (IHC) or qPCR, using goblet marker (Muc5ac), ciliated cell markers (Foxj1, Acetyl α-tubulin) and club cell marker (Scgb1a1) (FIG. 5).
Human bronchial epithelial cells (HBECs) from two COPD donors were differentiated in the presence of 0.3 ng/ml IL-13 and test compounds. At day 14, cultures were processed for qPCR, and evaluated for lung epithelial markers: goblet (Muc5ac), ciliated (Foxj1), club (Scgb1a1). 2^-ΔCt values were transformed to log form and normalized to DMSO. […]

[2] = test system: mouse intestinal organoids; experiment: Mouse small intestinal organoid differentiation, lineage markers by Q-PCR; type: cell-based; conditions: mouse intestinal organoids in ENR media, after 5 days of treatments, FIG. 1
Source text: Cryopreserved mouse intestinal organoids derived from small intestine were obtained from Stem Cell Technologies. The organoids were thawed and propagated in Intesticult Growth Medium (Mouse) (purchased from Stem Cell Technologies) following the company's instructions. Briefly, approximately 100 organoid fragments/well are embedded in 6 Matrigel domes in 6-well plates and growth media is renewed every 2-3 days. The organoids are passaged every 5-6 days in 1:4 ratio. To assess the potential of the predicted perturbations to induce or reduce the goblet cell lineage during organoid differentiation, an in vitro assay was established to induce the various intestinal lineages (enterocytes, goblet cells, Paneth cells, Enteroendocrine cells) based on published data (Yin et al, Nat. Meth. 2013). Briefly, organoid fragments are embedded in Matrigel and grown in custom-made media in the presence of EGF, Noggin, Rspondin (ENR) supplemented with the indicated factors (Table 4) that are known to induce markers of the various intestinal lineages. The expression of markers and the induction of the various cell lineages was assessed by Q-PCRs after 5 days of treatments (FIG. 1). Further characterization of the organoids will be performed by immunofluorescence staining and flow cytometry. For immunofluorescence commercially available antibodies against Muc2, ChrA, and ALPI will be used.

[3] = test system: mouse intestinal organoids; conditions: factors known to induce markers of the intestinal lineages (Yin et al.), ENR media; cited from earlier work

SMILES | goblet cells / goblet hyperplasia (Muc5ac qPCR) ([1]; FIG. 6A) | differentiation to ciliated (Foxj1) and club (Scgb1a1) cells (qPCR) ([1]; FIG. 6B-6C) | expression of muc2 gene, a marker of Goblet cells (Q-PCR) [2] | Cell lineage induced by factor [3]
CC[C@H]1OC(=O)[C@H](C)[C@@H](O[C@H]2C[C@@](C)(OC)[C@@H](O)[C@H](C)O2)[C@H](C)[C@@H](O[C@@H]2O[C@H](C)C[C@H](N(C)C)[C@H]2O)[C@](C)(O)C[C@@H](C)CN(C)[C@H](C)[C@@H](O)[C@]1(C)O [C] | inhibited goblet cells | promoting or maintaining differentiation to ciliated and club cells |  | 
C[C@H](NC(=O)Cc1cc(F)cc(F)c1)C(=O)N[C@H](C(=O)OC(C)(C)C)c1ccccc1 [DAPT] |  |  | induces the expression of muc2 gene | Enteroendocrine Cells, Paneth
Cc1ccc2nc(NC(=O)CSc3nc4c(c(=O)n3-c3ccccc3)SCC4)sc2c1 [IWP2] |  |  |  | Enterocytes, Enteroendocrine Cells
